Columns and labels:
[1] = Phase I metabolic stability in rat liver microsomes (with NADPH); format: in vitro ADME; conditions: pH 7.4, presence of NADPH, mean ± SD, n = 3
Procedure: We evaluated the Phase I metabolic stability of compounds 2−7 and 14−19 using rat and human liver microsomes, as previously described.[45]
Phase I metabolic stability assays were conducted using rat and human liver microsomes as previously described[45],[70] with minor modifications. In brief, the reactions were carried out with 100 mM potassium phosphate buffer, pH 7.4, in the presence of NADPH regenerating system (1.3 mM NADPH, 3.3 mM glucose 6-phosphate, 3.3 mM MgCl2, 0.4 U/mL glucose-6-phosphate dehydrogenase, 50 μM sodium citrate). Negative controls without cofactors were assessed to determine the non-CYP-mediated metabolism. Compound disappearance was monitored over time using a liquid chromatography and tandem mass spectrometry (LC/MS) method. All reactions were performed in triplicate.
Chromatographic analysis was performed on a Dionex ultra high-performance LC system coupled with Q Exactive Focus orbitrap mass spectrometer (Thermo Fisher Scientific Inc., Waltham MA). Separation was achieved using Agilent Eclipse Plus column (100 × 2.1 mm^2 i.d.; maintained at 35 °C) packed with a 1.8 μm C18 stationary phase. […] The total run time for each analyte was 6.5 min. Pumps were operated at a flow rate of 0.3 mL/min. The mass spectrometer controlled by Xcalibur software 4.0.27.13 (Thermo Scientific) was operated with a HESI ion source in positive ionization mode. Compounds were identified in the full-scan mode (from m/z 50 to 750) by comparing t = 0 samples with t = 30 min and t = 60 min samples.

D5 = target: T1, D5 (Homo sapiens, UniProt P21918); assay: PDSP primary screen, D5; format: binding; conditions: 10 µM compound
T1 construct: Psychoactive Drug Screening Program (PDSP)
T1 sequence (P21918 whole entry): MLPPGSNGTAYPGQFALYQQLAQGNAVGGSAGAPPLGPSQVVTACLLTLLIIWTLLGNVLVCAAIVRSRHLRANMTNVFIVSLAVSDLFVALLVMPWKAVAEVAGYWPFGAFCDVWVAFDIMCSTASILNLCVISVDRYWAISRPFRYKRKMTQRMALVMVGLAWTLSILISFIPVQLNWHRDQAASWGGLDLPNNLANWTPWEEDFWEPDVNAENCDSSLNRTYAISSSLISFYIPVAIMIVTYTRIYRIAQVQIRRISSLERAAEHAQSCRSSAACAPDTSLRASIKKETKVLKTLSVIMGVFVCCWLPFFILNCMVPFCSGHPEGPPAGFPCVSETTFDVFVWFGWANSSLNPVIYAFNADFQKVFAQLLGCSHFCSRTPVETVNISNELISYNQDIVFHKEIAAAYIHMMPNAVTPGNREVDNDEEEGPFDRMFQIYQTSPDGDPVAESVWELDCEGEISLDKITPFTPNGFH
Text: Receptor Primary Secondary Primary Secondary Primary Secondary Primary Secondary screen assay screen assay screen assay screen assay […]
inhibition in primary assessment.

human D2LR = human D2LR (Homo sapiens, UniProt P14416); assay: biochemical
human D2LR, sequence (P14416 whole entry): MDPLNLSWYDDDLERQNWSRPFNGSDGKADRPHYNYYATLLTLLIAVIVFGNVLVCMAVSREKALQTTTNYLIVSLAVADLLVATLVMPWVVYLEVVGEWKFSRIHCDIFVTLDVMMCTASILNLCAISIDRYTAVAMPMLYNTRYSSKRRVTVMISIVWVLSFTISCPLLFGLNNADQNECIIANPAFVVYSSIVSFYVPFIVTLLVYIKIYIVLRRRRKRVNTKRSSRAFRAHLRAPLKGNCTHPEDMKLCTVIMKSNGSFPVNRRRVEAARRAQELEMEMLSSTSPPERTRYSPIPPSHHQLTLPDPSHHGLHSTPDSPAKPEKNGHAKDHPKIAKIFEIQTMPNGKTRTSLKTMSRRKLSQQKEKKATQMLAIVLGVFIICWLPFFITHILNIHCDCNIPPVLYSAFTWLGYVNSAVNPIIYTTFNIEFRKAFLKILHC

human D3R = human D3R (Homo sapiens, UniProt P35462); assay: biochemical
human D3R, sequence (P35462 whole entry, canonical isoform): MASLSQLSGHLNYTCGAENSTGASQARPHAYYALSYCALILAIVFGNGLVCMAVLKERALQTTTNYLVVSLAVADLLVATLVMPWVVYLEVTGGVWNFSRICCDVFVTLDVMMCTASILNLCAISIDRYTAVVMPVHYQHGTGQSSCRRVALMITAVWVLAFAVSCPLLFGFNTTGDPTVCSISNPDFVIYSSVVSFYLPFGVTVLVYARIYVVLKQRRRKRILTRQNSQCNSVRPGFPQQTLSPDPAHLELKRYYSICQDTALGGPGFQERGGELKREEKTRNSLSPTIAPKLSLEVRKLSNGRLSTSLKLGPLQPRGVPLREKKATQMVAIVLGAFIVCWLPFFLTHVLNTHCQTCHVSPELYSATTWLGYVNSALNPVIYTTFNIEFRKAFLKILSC

human D2R long isoform = human D2R long isoform (Homo sapiens, UniProt P14416); assay: DiscoverX PathHunter β-arrestin recruitment assay, D2R
human D2R long isoform, sequence (P14416 whole entry, canonical isoform): as the sequence (P14416 whole entry) above

human D4R = target: T2, human D4R (Homo sapiens, UniProt P21917); assay: DiscoverX PathHunter β-arrestin recruitment assay, D4R
T2 sequence (P21917 1-419): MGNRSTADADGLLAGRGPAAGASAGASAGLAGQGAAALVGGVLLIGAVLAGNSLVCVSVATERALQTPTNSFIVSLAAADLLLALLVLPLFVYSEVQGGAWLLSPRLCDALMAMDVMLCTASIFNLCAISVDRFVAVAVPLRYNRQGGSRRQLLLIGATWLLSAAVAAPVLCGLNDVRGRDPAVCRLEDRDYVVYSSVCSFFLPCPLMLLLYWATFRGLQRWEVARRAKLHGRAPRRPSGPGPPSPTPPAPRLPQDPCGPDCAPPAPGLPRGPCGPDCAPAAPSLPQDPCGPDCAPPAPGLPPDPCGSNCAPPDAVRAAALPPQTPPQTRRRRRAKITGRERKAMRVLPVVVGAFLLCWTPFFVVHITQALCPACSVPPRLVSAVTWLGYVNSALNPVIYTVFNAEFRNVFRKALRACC

[2] = antagonist mode, EC80 dopamine (1 μM), normalized to spiperone

Work on `Cc1cccc(-n2cc(CN3CCN(c4cccc5ccccc45)CC3)nn2)c1` [Compound 18, 1-(Naphthalen-1-yl)-4-((1-(m-tolyl)-1H-1,2,3-triazol-4-yl)methyl)piperazine] yielded a half-life [1] of 56.8 ± 10.2 min, an inhibition at 10 µM (D5) of 25.7% and a Ki (human D2LR) of 6.54 ± 5.37 µM. For the same molecule, the Ki (human D3R) was 10.8 µM, the IC50 (human D2R long isoform) was 4.7 ± 1.1 µM and the “D2R Ant (%)” value (human D2R long isoform; [2]) was 87.8 ± 26.7%. The EC50 (human D4R) was > 10 µM, the IC50 (human D4R) was 3.6 ± 1.1 µM and the “D4R average activity at the highest tested dose” value (human D4R; agonist mode, at 10 μM (Emax ND)) was “ND (8% at 10 μM)”. For the same molecule, the “D4R Ant. (%)” value (human D4R; [2]) was 92.1 ± 12.1%.

From article PMC12910498 (ACS pharmacology & translational science, 2026)
